Patent US20220257491A1, “Prebiotic Oral Care Compositions and Methods” (Colgate-Palmolive Company, priority 2021, published 2022)

Test system: S. mitis
Assay: Multi-species biofilm composition: absolute abundance of S. mitis
Format: cell-based
Conditions: mean±SD n=3
Method: Biofilms are grown vertically on Calcium Deficient Hydroxyapatite (CAD-HA) disks (Hitemco Medical, Old Bethpage, USA) using the Amsterdam Active Adhesion model. Biofilms are allowed to establish during 24 h (37° C., 170 rpm) under micro-aerophilic conditions (6% O2, 7% CO2, 7% H2, 80% N2). After this 24 h, disks are rinsed 3 times a day for 3 minutes (RT, 250 rpm), for 3 consecutive days, by transferring the lid containing the disks to a new 24-well plate containing 2 mL/well of the appropriate substrate solution. As a negative control, PBS (pH 5.7) without substrate supplementation is used. After each rinsing step, disks are shortly dip-rinsed in a new 24-well plate containing fresh modified BHI medium (2 mL/well) to remove remaining substrate traces. Subsequently, the lid is transferred to another 24-well plate containing fresh modified BHI medium (2 mL/well), followed by incubation (micro-aerophilic, 37° C., 170 rpm) until the next rinsing step.
NADM, N-acetyl-D-glucosamine (“NADG”) and D-(+)-mannose are selected to determine their effects on multi-species biofilm composition. […] decrease in absolute numbers in at least four of the pathogenic bacterial species tested in the assay, compared to the control, the results of which are described in Table 1 below. Absolute abundances of bacterial species are shown as mean±SD (n=3) logarithmic values of the genome equivalents per millilitre (log(Geq/mL)).

Row | SMILES | Absolute abundance S. mitis (substrate 1%(w/v) in PBS) | Absolute abundance S. mitis (substrate 1 M in PBS)
1 | O=C[C@@H](O)[C@@H](O)[C@H](O)[C@H](O)CO [D-mannose, D-(+)-mannose] | 3.00 ± 0.49 log(Geq/mL) | <LOD
2 | CC(=O)N[C@H]1C(O)O[C@H](CO)[C@@H](O)[C@@H]1O (stereo partly drawn) [NADG, N-acetyl-D-glucosamine, reference compound] | < LOD | <LOD
3 | CC(=O)N[C@@H]1C(O)O[C@H](CO)[C@@H](O)[C@@H]1O (stereo partly drawn) [NADM, N-acetyl-D-mannosamine] | < LOD | <LOD
